{"source": "paper doi:10.1101/2020.11.19.390633v1", "about": "(biorxiv, 2020)", "target": "murine wtIDH1 (KPC cells) (Mus musculus, UniProt O88844)", "sequence (O88844 2-414)": "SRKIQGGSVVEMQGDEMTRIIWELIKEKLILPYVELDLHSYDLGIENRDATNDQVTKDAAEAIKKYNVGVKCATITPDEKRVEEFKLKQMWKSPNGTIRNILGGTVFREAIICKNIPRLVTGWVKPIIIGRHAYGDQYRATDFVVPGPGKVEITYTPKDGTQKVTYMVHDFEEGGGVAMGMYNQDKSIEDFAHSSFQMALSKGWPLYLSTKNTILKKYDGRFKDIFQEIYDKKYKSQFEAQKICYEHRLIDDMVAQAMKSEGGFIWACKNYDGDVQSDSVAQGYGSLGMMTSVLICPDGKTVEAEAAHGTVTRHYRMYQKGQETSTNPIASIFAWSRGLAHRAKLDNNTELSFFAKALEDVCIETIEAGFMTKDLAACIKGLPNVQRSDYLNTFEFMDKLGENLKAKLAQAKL", "experiment": "cell-based IDH activity assay, NADPH synthesis, after IDH2 siRNA", "conditions": "KPC murine cells, […] MgSO4, […] h; allosteric"}
{"smiles": "N#Cc1ccnc(N2C(=O)CC[C@H]2C(=O)N(c2cncc(F)c2)[C@H](C(=O)NC2CC(F)(F)C2)c2ccccc2Cl)c1", "note": "[AG-120]", "values": [{"measurement": "EC50", "result": "110 ± 2", "unit": "nM"}]}
